Reference: patent US12492229B2, “Antimicrobial peptides” (Donald Danforth Plant Science Center, priority 2019, dated 2025)

What was measured:
Botrytis cinerea = assay type: cell-based; details: Pichia pastoris-expressed peptide
Fusarium graminearum = assay type: cell-based; details: Pichia pastoris-expressed peptide
Phytophthora capsici = assay type: cell-based; details: Pichia pastoris-expressed peptide
Fusarium oxysporum = assay type: cell-based
Alternaria brassicicola = assay type: cell-based; details: Pichia pastoris-expressed peptide
A. rhizogenes = test: In vitro antibacterial activity; assay type: cell-based, Agrobacterium rhizogenes
A. tumefaciens = test: In vitro antibacterial activity; assay type: cell-based

SbDef1: endogenous Sorghum bicolor defensin antifungal peptide, 49 amino acids, SEQ ID NO: 1; expressed in Pichia pastoris (VHVCTMRNKFFHGPCMSNKNCAASCIQHRIGGGGYCSSRRQICKCTLQC; Sorghum bicolor)
IC50 (Botrytis cinerea): 1500 to 2000 nM | MLC (minimal lethal concentration) (Botrytis cinerea): 3 µM | IC50 (Fusarium graminearum): 2000 to 3000 nM | MLC (minimal lethal concentration) (Fusarium graminearum): 6 µM | IC50 (Phytophthora capsici): 2000 to 3000 nM | MLC (minimal lethal concentration) (Phytophthora capsici): 6 µM | IC50 (Fusarium oxysporum): 200 to 500 nM | MLC (minimal lethal concentration) (Fusarium oxysporum): 0.75 µM | IC50 (Alternaria brassicicola): 1500 to 2000 nM | MLC (minimal lethal concentration) (Alternaria brassicicola): 6 µM | antibacterial activity (A. rhizogenes): does not exhibit any antibacterial activity | antibacterial activity (A. tumefaciens): does not exhibit any antibacterial activity
